For orientation: MIC means the lowest concentration that inhibits growth of the organism.

The record followed here is ChEMBL document CHEMBL4376803, “Recent Advances in the Exploration of Therapeutic Analogues of Gramicidin S, an Old but Still Potent Antimicrobial Peptide” (J Med Chem, 2019).

Values after ≈ are worked out from the molar mass of the structure shown. Square brackets hold non-standard residues; d marks the D form. Peptide text beside a SMILES is read from it. A value given as a limit tells only on which side of the number the result lay.

Data set [1] concerns Erythrocyte. Nature of the data set: Hemolytic activity against RBC (unknown origin) at 100 ul after 4 hrs. Type of data set: ADME, cell-based. Conditions: erythrocyte, 4 h.
In data set [2] the test system is Erythrocyte. As to the kind of experiment: Haemolytic activity in human RBC after 30 mins by spectrophotometric analysis. Type of data set: ADME, cell-based. To be noted: 0.5 h.
Data set [3] concerns Escherichia coli. As to the kind of experiment: Antibacterial activity against Escherichia coli ATCC 25922 after 22 hrs by double dilution method. Type of data set: functional. To be noted: ATCC 25922, 22 h.
A short description of data set [4]: Therapeutic index, ratio of HC90 for hemolytic activity in human erythrocytes to MIC against Escherichia coli ATCC 25922. Type of data set: toxicity, cell-based. Conditions: read-out: TI.
Data set [5] in a line: Therapeutic index, ratio of HC90 for hemolytic activity in human erythrocytes to MIC against Staphylococcus aureus ATCC 25923. The class given is toxicity, cell-based. Conditions: read-out: TI.
Data set [6] is described as follows: Therapeutic index, ratio of HC90 for hemolytic activity in human erythrocytes to MIC against Enterococcus faecalis ATCC 29212. Type of data set: toxicity, cell-based. Conditions: read-out: TI.
Data set [7] deals with Enterococcus faecalis. Nature of the data set: Antibacterial activity against Enterococcus faecalis ATCC 29212 after 22 hrs by double dilution method. The class given is functional. To be noted: ATCC 29212, 22 h.
A short description of data set [8]: Therapeutic index, ratio of HC90 for hemolytic activity in human erythrocytes to MIC against Staphylococcus epidermidis ATCC 12228. Type of data set: toxicity, cell-based. To be noted: read-out: TI.
The test system of data set [9] is Pseudomonas aeruginosa. As to the kind of experiment: Antibacterial activity against Pseudomonas aeruginosa ATCC 27853 after 22 hrs by double dilution method. To be noted: ATCC 27853, 22 h. The class given is functional.
Data set [10] can be described thus: Therapeutic index, ratio of HC90 for hemolytic activity in human erythrocytes to MIC against Pseudomonas aeruginosa ATCC 27853. The class given is toxicity, cell-based. Conditions: read-out: TI.
Data set [11] deals with Staphylococcus epidermidis. Nature of the data set: Antibacterial activity against Staphylococcus epidermidis ATCC 12228 after 22 hrs by double dilution method. The class given is functional. To be noted: ATCC 12228, 22 h.
In data set [12] the test system is Staphylococcus aureus. Nature of the data set: Antibacterial activity against Staphylococcus aureus ATCC 25923 after 22 hrs by double dilution method. Type of data set: functional. Conditions: ATCC 25923, 22 h.
For data set [13], the system named is Escherichia coli. As to the kind of experiment: Antibacterial activity against Escherichia coli ATCC 25922 after overnight incubation. The class given is functional.
The test system of the next data set is Bacillus cereus. Nature of the data set: Antibacterial activity against Bacillus cereus ATCC 11778 after overnight incubation. The class given is functional.
In data set [14] the test system is Staphylococcus epidermidis. As to the kind of experiment: Antibacterial activity against Staphylococcus epidermidis ATCC 12228 after overnight incubation. Type of data set: functional.
For data set [15], the system named is Enterococcus faecalis. As to the kind of experiment: Antibacterial activity against Enterococcus faecalis ATCC 29212 after overnight incubation. The class given is functional.
The test system of data set [16] is Staphylococcus aureus. Nature of the data set: Antibacterial activity against Staphylococcus aureus ATCC 29213 after overnight incubation. Type of data set: functional.
The subject of data set [17] is Pseudomonas aeruginosa. As to the kind of experiment: Antibacterial activity against Pseudomonas aeruginosa ATCC 27853 after overnight incubation. Type of data set: functional.
A short description of data set [18]: Therapeutic index, ratio of HD100 for hemolytic activity in human RBC to MIC against Staphylococcus aureus. Conditions: human red blood cells, read-out: TI. The class given is toxicity.
Another data set has as its system Candida albicans. Nature of the data set: Antibacterial activity against Candida albicans after 24 hrs by microtitre dilution method. The class given is functional.
A short description of data set [19]: Therapeutic index, ratio of HD100 for hemolytic activity in human erythrocytes to MIC against Escherichia coli. The class given is toxicity, cell-based. To be noted: read-out: TI.
The subject of data set [20] is Staphylococcus aureus. As to the kind of experiment: Antibacterial activity against Staphylococcus aureus after 24 hrs by microtitre dilution method. Type of data set: functional.
In data set [21] the test system is Enterococcus faecalis. As to the kind of experiment: Antibacterial activity against Enterococcus faecalis after 24 hrs by microtitre dilution method. The class given is functional.
Data set [22] in a line: Therapeutic index, ratio of HD100 for hemolytic activity in human RBC to MIC against Enterococcus faecalis. To be noted: human red blood cells, read-out: TI. Type of data set: toxicity.
For data set [23], the system named is Pseudomonas aeruginosa. As to the kind of experiment: Antibacterial activity against Pseudomonas aeruginosa after 24 hrs by microtitre dilution method. Type of data set: functional.
Data set [24] deals with Escherichia coli. As to the kind of experiment: Antibacterial activity against Escherichia coli after 24 hrs by microtitre dilution method. The class given is functional.
Data set [25] in a line: Therapeutic index, ratio of HD100 for hemolytic activity in human erythrocytes to MIC against Pseudomonas aeruginosa. Type of data set: toxicity, cell-based. To be noted: read-out: TI.

In the data set on Erythrocyte [1], `CC(C)C[C@@H]1NC(=O)[C@H](CCCN)NC(=O)[C@H](C(C)C)NC(=O)[C@@H]2CCCN2C(=O)[C@@H](Cc2ccccc2)NC(=O)[C@H](CC(C)C)NC(=O)[C@H](CCCN)NC(=O)[C@H](C(C)C)NC(=O)[C@H]2CC[C@H](OCc3ccccc3)[C@@H](CNC1=O)O2` gave an HD100 of 500 µg/mL.

In the case of `CCCCCCCC[C@H]1CC2C(C1)[C@@H]1SC[C@H]3C(=O)N[C@@H](C(C)C)C(=O)N[C@@H](CCCN)C(=O)N[C@@H](CC(C)C)C(=O)N[C@H](Cc4ccccc4)C(=O)N4CCC[C@H]4C(=O)N[C@@H](C(C)C)C(=O)N[C@H](CCCN)C(=O)N[C@@H](CC(C)C)C(=O)N[C@H]2C(=O)N31` (some centres not stated), the HC90 in the data set with Erythrocyte [2] amounted to 38 µg/mL. The MIC came out at 64 µg/mL (≈ 51.3 µM) in the data set on Escherichia coli [3]; 8 µg/mL (≈ 6.41 µM) against Enterococcus faecalis [7]; 128 µg/mL (≈ 103 µM) in the data set on Pseudomonas aeruginosa [9]; 4 µg/mL (≈ 3.21 µM) in data set [11]; 4 µg/mL (≈ 3.21 µM) in the data set on Staphylococcus aureus [12]. Also, the selectivity ratio in [4] was determined as 0.59; in [5], 9.5; in data set [6], 4.75; in data set [8], 9.5; in data set [10] it was 0.3.

Regarding `CC(C)C[C@@H]1NC(=O)[C@H](CCCN)NC(=O)[C@H](C(C)C)NC(=O)[C@@H]2CCCN2C(=O)[C@@H](Cc2ccccc2)NC(=O)[C@H](CC(C)C)NC(=O)[C@H](CCCN)NC(=O)[C@H](C(C)C)NC(=O)[C@@H]2O[C@H](CNC1=O)[C@@H](OCc1ccc3ccccc3c1)[C@@H]2O`, the MIC with Escherichia coli [13] was > 64 µg/mL; in the data set with Bacillus cereus it was 4 µg/mL (≈ 3.34 µM); in [14] it was 2 µg/mL (≈ 1.67 µM); in the data set with Enterococcus faecalis [15], 8 µg/mL (≈ 6.69 µM); in the data set with Staphylococcus aureus [16], 4 to 8 µg/mL (≈ 3.34 to 6.69 µM); against Pseudomonas aeruginosa [17], > 64 µg/mL.

`CC(C)C[C@@H]1NC(=O)[C@H](CCCCN)NC(=O)[C@H](C(C)C)NC(=O)[C@@H]2CCCN2C(=O)[C@@H](Cc2ccc(O)cc2)NC(=O)[C@H](CC(C)C)NC(=O)[C@H](CCCCN)NC(=O)[C@H](C(C)C)NC(=O)[C@H](CCCCN)NC(=O)[C@H](CC(C)C)NC(=O)[C@H](CCCCN)NC(=O)[C@@H]2CCCN2C(=O)[C@@H](Cc2ccc(O)cc2)NC(=O)[C@H](CCCCN)NC(=O)[C@H](C(C)C)NC(=O)[C@H](CCCCN)NC1=O` (cyclo(VKLKVK[dY]PKLKVKL[dY]P)): the selectivity ratio was > 25 in data set [18], > 50 in data set [19], > 50 in [22] and > 3.1 in [25]. Besides, the MIC in the data set with Candida albicans amounted to 16 µg/mL (≈ 8.31 µM); against Staphylococcus aureus [20] it was 8 µg/mL (≈ 4.15 µM); in the data set with Enterococcus faecalis [21], 4 µg/mL (≈ 2.08 µM); against Pseudomonas aeruginosa [23], 64 µg/mL (≈ 33.2 µM); against Escherichia coli [24], 4 µg/mL (≈ 2.08 µM).
